Data on one compound can be found in article PMC3759966 (The Biochemical journal, 2009).

A word on the IC50: it is the concentration that gives 50% inhibition.

Test [1] addresses endogenous LRRK2 from Swiss-3T3 cells (Mus musculus, UniProt Q5S006). Kind of test: Kinase assay of immunoprecipitated endogenous LRRK2 with Nictide. It counts as biochemical. Conditions: Swiss-3T3 immunoprecipitates, Nictide substrate.
The test system of test [2] is LRRK2. Conditions: cited from earlier work.
Test [3] addresses T1, BRSK2 (Homo sapiens, UniProt Q8IWQ3).
T1 sequence (Q8IWQ3 1-736): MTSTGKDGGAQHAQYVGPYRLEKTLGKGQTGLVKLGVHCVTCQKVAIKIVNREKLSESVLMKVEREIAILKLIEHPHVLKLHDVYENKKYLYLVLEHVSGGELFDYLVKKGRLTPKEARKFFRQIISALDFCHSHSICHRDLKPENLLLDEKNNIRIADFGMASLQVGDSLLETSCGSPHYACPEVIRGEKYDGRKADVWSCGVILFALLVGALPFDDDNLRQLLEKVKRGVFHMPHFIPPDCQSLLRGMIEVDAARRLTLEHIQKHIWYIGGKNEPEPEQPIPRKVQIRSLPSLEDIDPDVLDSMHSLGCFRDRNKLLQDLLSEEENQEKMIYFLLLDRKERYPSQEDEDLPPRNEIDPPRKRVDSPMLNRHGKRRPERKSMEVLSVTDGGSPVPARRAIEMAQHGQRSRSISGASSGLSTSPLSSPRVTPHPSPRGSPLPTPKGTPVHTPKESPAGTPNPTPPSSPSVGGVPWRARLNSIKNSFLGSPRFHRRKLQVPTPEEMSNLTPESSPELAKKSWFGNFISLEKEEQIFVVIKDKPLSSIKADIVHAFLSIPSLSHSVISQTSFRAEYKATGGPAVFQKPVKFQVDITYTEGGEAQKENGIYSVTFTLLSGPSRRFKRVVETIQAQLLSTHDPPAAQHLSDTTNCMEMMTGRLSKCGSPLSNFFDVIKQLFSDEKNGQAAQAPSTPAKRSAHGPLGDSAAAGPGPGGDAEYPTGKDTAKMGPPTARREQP
In words: Kinase profiling panel. It counts as biochemical. To be noted: read-out: percentage of kinase activity compared with control.

Test [4] addresses FGFR1 (Homo sapiens, UniProt P11362). In words: Kinase profiling panel. It counts as biochemical. Conditions: read-out: percentage of kinase activity compared with control.

endogenous LRRK2 from Swiss-3T3 cells, sequence (Q5S006 whole entry): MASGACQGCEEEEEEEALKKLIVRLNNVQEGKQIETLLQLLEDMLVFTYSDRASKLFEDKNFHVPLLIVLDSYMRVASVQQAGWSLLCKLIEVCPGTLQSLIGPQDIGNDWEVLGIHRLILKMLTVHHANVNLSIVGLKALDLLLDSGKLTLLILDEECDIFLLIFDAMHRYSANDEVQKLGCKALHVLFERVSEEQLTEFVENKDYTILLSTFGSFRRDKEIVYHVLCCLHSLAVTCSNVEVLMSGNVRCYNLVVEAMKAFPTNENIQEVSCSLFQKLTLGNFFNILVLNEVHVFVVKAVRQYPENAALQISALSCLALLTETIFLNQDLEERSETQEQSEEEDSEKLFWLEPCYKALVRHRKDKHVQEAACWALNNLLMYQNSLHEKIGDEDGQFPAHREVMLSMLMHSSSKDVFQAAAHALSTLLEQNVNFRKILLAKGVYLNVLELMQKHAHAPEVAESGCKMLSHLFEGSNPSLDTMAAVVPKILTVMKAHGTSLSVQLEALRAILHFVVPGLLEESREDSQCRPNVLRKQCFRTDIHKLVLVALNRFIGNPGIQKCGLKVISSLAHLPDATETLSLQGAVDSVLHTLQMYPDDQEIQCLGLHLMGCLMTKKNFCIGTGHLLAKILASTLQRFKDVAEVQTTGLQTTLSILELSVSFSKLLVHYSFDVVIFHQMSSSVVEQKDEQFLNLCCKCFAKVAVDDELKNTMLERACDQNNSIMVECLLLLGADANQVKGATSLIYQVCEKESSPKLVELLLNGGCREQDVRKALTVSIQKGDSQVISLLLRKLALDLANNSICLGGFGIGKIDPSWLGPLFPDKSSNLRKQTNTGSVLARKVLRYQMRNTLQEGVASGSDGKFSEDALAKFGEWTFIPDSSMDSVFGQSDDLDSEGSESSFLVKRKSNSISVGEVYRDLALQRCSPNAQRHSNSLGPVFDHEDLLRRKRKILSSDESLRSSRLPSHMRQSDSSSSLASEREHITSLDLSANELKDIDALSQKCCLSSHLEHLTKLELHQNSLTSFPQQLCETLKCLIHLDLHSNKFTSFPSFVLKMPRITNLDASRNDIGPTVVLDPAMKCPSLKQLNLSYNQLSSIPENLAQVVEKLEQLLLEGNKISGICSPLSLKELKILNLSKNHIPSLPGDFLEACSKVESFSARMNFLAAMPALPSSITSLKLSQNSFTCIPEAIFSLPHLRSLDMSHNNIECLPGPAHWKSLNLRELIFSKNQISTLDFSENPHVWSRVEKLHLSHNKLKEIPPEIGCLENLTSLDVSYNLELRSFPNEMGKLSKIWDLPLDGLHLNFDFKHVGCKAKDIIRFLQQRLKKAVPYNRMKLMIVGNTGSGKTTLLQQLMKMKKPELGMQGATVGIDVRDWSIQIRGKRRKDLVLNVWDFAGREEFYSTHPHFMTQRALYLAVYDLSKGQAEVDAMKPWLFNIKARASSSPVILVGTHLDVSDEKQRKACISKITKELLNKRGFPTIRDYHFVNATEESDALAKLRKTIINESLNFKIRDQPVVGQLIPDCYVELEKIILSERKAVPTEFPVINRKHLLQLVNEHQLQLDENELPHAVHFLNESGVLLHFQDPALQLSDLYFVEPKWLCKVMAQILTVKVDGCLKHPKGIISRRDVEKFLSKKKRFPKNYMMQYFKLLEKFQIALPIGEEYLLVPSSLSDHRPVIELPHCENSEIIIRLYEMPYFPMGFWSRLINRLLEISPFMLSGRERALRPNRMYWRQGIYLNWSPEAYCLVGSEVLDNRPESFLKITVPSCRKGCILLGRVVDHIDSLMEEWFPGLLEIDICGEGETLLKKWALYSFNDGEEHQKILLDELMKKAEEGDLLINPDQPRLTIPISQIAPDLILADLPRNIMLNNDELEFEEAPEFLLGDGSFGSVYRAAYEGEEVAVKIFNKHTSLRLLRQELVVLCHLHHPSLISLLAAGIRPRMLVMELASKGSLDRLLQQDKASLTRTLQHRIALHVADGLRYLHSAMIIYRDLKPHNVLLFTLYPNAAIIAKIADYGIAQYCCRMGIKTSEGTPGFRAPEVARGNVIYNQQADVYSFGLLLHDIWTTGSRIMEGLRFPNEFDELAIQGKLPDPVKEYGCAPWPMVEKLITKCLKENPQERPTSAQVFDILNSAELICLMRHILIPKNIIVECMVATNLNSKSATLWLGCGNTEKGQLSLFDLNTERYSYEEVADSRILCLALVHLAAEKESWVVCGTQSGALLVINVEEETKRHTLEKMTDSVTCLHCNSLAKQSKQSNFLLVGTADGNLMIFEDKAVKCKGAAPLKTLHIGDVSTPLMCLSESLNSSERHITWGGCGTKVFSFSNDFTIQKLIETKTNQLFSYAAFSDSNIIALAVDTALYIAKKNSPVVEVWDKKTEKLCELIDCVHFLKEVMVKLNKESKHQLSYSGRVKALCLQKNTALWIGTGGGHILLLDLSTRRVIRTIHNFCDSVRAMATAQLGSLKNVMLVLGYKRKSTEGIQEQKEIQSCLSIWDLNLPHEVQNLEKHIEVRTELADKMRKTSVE
FGFR1, sequence (P11362 22-822): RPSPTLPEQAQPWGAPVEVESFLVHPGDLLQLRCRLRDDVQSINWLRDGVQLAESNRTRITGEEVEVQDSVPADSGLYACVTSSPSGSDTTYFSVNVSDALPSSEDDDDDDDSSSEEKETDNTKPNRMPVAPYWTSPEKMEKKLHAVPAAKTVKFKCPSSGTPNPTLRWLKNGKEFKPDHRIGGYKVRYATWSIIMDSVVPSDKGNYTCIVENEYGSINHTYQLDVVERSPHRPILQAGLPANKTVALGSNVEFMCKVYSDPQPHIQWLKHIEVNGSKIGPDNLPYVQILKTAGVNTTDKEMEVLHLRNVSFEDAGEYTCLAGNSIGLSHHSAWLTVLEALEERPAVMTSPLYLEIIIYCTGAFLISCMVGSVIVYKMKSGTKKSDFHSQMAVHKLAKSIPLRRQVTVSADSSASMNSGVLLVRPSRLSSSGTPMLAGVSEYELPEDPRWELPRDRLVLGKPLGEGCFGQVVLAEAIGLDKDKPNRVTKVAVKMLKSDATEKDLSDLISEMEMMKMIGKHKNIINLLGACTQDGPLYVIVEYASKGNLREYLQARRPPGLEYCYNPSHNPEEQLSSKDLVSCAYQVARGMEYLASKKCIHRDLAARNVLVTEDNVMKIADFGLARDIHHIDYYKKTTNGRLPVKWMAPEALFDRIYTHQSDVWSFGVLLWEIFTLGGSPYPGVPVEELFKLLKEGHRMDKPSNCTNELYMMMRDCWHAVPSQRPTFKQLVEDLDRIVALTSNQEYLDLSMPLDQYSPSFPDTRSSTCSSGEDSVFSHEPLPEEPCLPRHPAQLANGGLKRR

Consider `CCN(CC)CCNC(=O)c1c(C)[nH]c(/C=C2\C(=O)Nc3ccc(F)cc32)c1C` [Sunitinib, sunitinib], for which the “effect on protein kinase activity in LRRK2 immunoprecipitate” value in test [1] was “suppressed”. The IC50 in test [2] is […]. The remaining activity at 1 µM in test [3] came out at 40 ± 6%. In addition, the remaining activity at 0.1 µM in test [4] stood at 77 ± 2%.
